{"source": "paper PMC7766124", "about": "“Improved Cell Selectivity of Pseudin-2 via Substitution in the Leucine-Zipper Motif: In Vitro and In Vivo Antifungal Activity” (Antibiotics, 2020)", "key": {"T. beigelii": {"system": "T. beigelii", "assay_type": "cell-based, T. beigelii (KCTC 7707)", "conditions": "36 h", "text": "(§1) Aspergillus flavus (KCTC 6905), A. fumigatus (KCTC 6145), Fusarium moniliforme (KCTC 6149), F. oxysporum (KCTC 16909), C. albicans (KCTC 7270), C. krusei (CCARM 14017), C. parapsilosis (CCARM 14016), C. tropicalis (KCTC 7221), and T. beigelii (KCTC 7707) were obtained from the Korea Collection for Type Cultures (KCTC) and Culture Collection of Antimicrobial Resistant Microbes (CCARM). Mold and yeast fungi were pre-grown on potato dextrose (PD) and yeast extract peptone dextrose (YPD) agars, respectively.\n(§2) Antifungal activity of peptides was performed by microtiter plate assays. Fungal conidia from four-day-old molds were collected using 0.08% Triton X-100 (v/v), and pre-cultivated yeast cells were adjusted to 2 × 10^4 spores/mL in 10 mM sodium phosphate buffer (SP, pH 7.2) or 10 mM 2-(N-morpholino)ethanesulfonic acid (MES) buffer (pH 5.5) supplemented with 20% culture medium, followed by addition to peptide solutions (0.25, 0.5, 1, 1.5, 2, 4, 6, 8, 12, 16, 32, 48, and 64 µM) in 96-well microtiter plates. After incubation for 36 h at 28 °C, the hyphal growth of conidia and the proliferation of yeast cells were observed under a light microscope. All assays were performed in triplicate. The MIC values were defined as the lowest concentration of samples that reduced fungal germination (for mold) or cell proliferation (for yeast) by more than 90% [34]."}, "[1]": {"assay": "Calcein leakage from fungus-mimic artificial vesicles", "conditions": "fungus-mimic PC/PE/PI/ergosterol vesicles, 20 μM lipid; peptide/lipid molar ratio 0.05; 100% = 0.03% Triton X-100; three independent experiments", "method": "The permeability of peptides in calcein-entrapped artificial liposomes was assayed by measuring calcein leakage. The desired mixtures of lipids (PC/PE/PI/ergosterol, 5:4:1:2 and PC/CH/SM, 2:1:1, weight ratio) were dissolved in chloroform at 10 mg/mL, dried in a glass tube under nitrogen, and then lyophilized overnight to remove residual solvent. The dried lipid films were resuspended in 1 mL of dye solution (80 mM calcein, 10 mM HEPES buffer, pH 7.2) at 50 °C and vortexed, followed by freeze-thawing for nine cycles and extrusion with polycarbonate filters (0.2-μm pore-size) using an Avanti Mini-Extruder (Avanti Polar Lipids Inc., Alabaster, AL, USA). Free calcein was removed using PD-10 desalting columns (GE Healthcare Life Science, Seoul, Korea). Calcein-entrapped vesicles of 20 μM lipids were incubated with peptides at concentrations of […], 0.02, 0.05, and 0.1 molar ratio (peptide/lipid) and the fluorescence was assessed at 480 (Ex) and 520 (Em) nm using a microtiter SpectraMax M5 reader (Molecular Devices). Complete (100%) release was achieved by the addition of 0.03% Triton X-100 (v/v)."}, "A. flavus": {"system": "A. flavus", "assay_type": "cell-based, Aspergillus flavus (KCTC 6905)", "conditions": "36 h", "text": "as §1, §2"}, "F. moniliforme": {"system": "F. moniliforme", "assay_type": "cell-based, Fusarium moniliforme (KCTC 6149)", "conditions": "36 h", "text": "as §1, §2"}, "C. tropicalis [2]": {"system": "C. tropicalis", "assay_type": "cell-based, C. tropicalis (KCTC 7221)", "conditions": "36 h", "text": "as §1, §2"}, "F. oxysporum": {"system": "F. oxysporum", "assay_type": "cell-based, F. oxysporum (KCTC 16909)", "conditions": "36 h", "text": "as §1, §2"}, "C. tropicalis [3]": {"system": "C. tropicalis", "assay": "C. tropicalis skin infection mouse model", "assay_type": "in vivo, BALB/C female mice", "method": "All animal experiments and procedures were performed with the approval of the Institutional Animal Care and Use Committee (IACUC) of Sunchon National University, Korea (SCNU IACUC-2019-10). BALB/C female mice (six weeks old) were obtained from Koatech Co. (Pyongtaek, Gyeonggido, Korea) and divided into three groups (n = 4): control, pseudin-2, and P2-LZ4 groups. The skin on the back of each mouse was shaved 1 h before infection, and the mice were anesthetized by inhalation of 5% (induction) and 2% (maintenance) isoflurane in pure oxygen. Mice were then subjected to subcutaneous infection with 100 µL C. tropicalis (10^7 cells/mL) by injection into the dorsum of each mouse. At 24 h after infection, 100 µL PBS, pseudin-2 (0.1 mg/mL), or P2-LZ4 (0.1 mg/mL) was injected into the same site. At four days after peptide injection, mice were euthanized by CO2 inhalation, and the infected skin tissues were excised, fixed in 4% paraformaldehyde, embedded in paraffin, stained with H&E, and observed by light microscopy."}, "[4]": {"system": "Candida albicans, C. krusei, C. tropicalis, and Trichosporon beigelii", "assay": "Antifungal microtiter plate assay (MIC), range over pathogenic yeasts", "assay_type": "cell-based", "conditions": "neutral pH; range over four yeasts", "method": "as §2"}, "C. krusei": {"system": "C. krusei", "assay_type": "cell-based, C. krusei (CCARM 14017)", "conditions": "36 h", "text": "as §1, §2"}, "C. albicans": {"system": "C. albicans", "assay_type": "cell-based, C. albicans (KCTC 7270)", "conditions": "36 h", "text": "as §1, §2"}, "A. fumigatus": {"system": "A. fumigatus", "assay_type": "cell-based, A. fumigatus (KCTC 6145)", "conditions": "36 h", "text": "as §1, §2"}, "C. parapsilosis": {"system": "C. parapsilosis", "assay_type": "cell-based, C. parapsilosis (CCARM 14016)", "conditions": "36 h", "text": "as §1, §2"}}, "note": "Like-named read-outs stand apart in the source and are kept apart here. No end group written: not given here.", "data": [{"substance": "GLNALKKVAQGIHEAAKLINNHVQ-NH2 [P2-LZ4]", "values": [{"measurement": "MIC", "setting": "T. beigelii; pH 5.5", "value": 1, "unit": "µM"}, {"measurement": "MIC", "setting": "T. beigelii; pH 7.2", "value": 1.5, "unit": "µM"}, {"measurement": "leakage of calcein", "setting": "[1]", "value": 80.5, "unit": "%"}, {"measurement": "MIC", "setting": "A. flavus; pH 5.5", "value": 16, "unit": "µM"}, {"measurement": "MIC", "setting": "A. flavus; pH 7.2", "value": 32, "unit": "µM"}, {"measurement": "MIC", "setting": "F. moniliforme; pH 5.5", "value": "32 (32) µM"}, {"measurement": "MIC", "setting": "F. moniliforme; pH 7.2", "value": "32 (32) µM"}, {"measurement": "MIC", "setting": "C. tropicalis [2]; pH 5.5", "value": 1, "unit": "µM"}, {"measurement": "MIC", "setting": "C. tropicalis [2]; pH 7.2", "value": 2, "unit": "µM"}, {"measurement": "MIC", "setting": "F. oxysporum; pH 5.5", "value": 16, "unit": "µM"}, {"measurement": "MIC", "setting": "F. oxysporum; pH 7.2", "value": 2, "unit": "µM"}, {"measurement": "histological evaluation of skin tissues (H&E)", "setting": "C. tropicalis [3]; 100 µL of 0.1 mg/mL peptide s.c. 24 h after infection, tissues taken four days after peptide injection", "value": "nearly identical to those of the PBS-treated mice"}, {"measurement": "skin lesions (swelling and redness in the dorsal skin)", "setting": "C. tropicalis [3]; 100 µL of 0.1 mg/mL peptide s.c. 24 h after s.c. infection, monitored seven days, n = 4", "value": "no obvious skin lesions"}, {"measurement": "MICs against pathogenic yeast cells", "setting": "[4]", "value": "1.5 to 6", "unit": "µM"}, {"measurement": "MIC", "setting": "C. krusei; pH 5.5", "value": 8, "unit": "µM"}, {"measurement": "MIC", "setting": "C. krusei; pH 7.2", "value": 6, "unit": "µM"}, {"measurement": "MIC", "setting": "C. albicans; pH 5.5", "value": 8, "unit": "µM"}, {"measurement": "MIC", "setting": "C. albicans; pH 7.2", "value": 4, "unit": "µM"}, {"measurement": "MIC", "setting": "A. fumigatus; pH 5.5", "value": 16, "unit": "µM"}, {"measurement": "MIC", "setting": "A. fumigatus; pH 7.2", "value": 32, "unit": "µM"}, {"measurement": "MIC", "setting": "C. parapsilosis; pH 5.5", "value": "> 64", "unit": "µM"}, {"measurement": "MIC", "setting": "C. parapsilosis; pH 7.2", "value": 48, "unit": "µM"}]}]}
